Results: the supplement of paper PMC8372320

test: photocatalytic hydrogen evolution rate (per 5 mg catalyst); higher = more photocatalytic H2 evolution; extreme values may be limits of the assay; conditions: catalyst mass (mg): 5; Pt cocatalyst (wt%): 3; sacrificial medium: triethylamine/methanol/water 1:1:1
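Also: aromatic molecules in triethylamine/methanol/water with Pt photoreduced in situ, irradiated 3 h under a 1 sun AM 1.5G solar simulator (350–1000 nm), H2 quantified by headspace gas chromatography; listed molecule itself used as the photocatalyst at 5 mg per vial.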

SMILES | photocatalytic hydrogen evolution rate [µmol/h]
Brc1c2ccccc2c(Br)c2ccccc12 | 0.0125
N#Cc1c(F)c(F)c(F)c(F)c1C#N | 4.24
O=c1cc(Br)[nH]c(Br)c1 | 0
N#Cc1cc(N)ccn1 | 0
N#Cc1ccc(C=O)s1 | 0.0384
Nc1cc(Br)c(F)cc1Br | 0
Cc1cc(C)cc(-c2cc(C)cc(C)c2)c1 | 0
O=Cc1cc(Br)cc(C=O)c1 | 0.831
Nc1c(Br)cnc(Br)c1N | 0
N#Cc1c(F)c(F)c(C#N)c(F)c1F | 8.13
O=Cc1ccc(F)c(O)c1 | 0.000356
Brc1nnc(Br)s1 | 0
c1ccc2sccc2c1 | 0
COc1ccc(B(O)O)cc1 | 0
O=Cc1ccc(O)c(O)c1O | 0
OB(O)c1ccc(Br)nc1 | 0
O=Cc1cccc(C=O)c1 | 1.65
O=Cc1ccc(O)cc1O | 0.896
COc1ccc(N2C(=O)c3ccc4c5ccc6c7c(ccc(c8ccc(c3c48)C2=O)c75)C(=O)N(c2ccc(OC)cc2)C6=O)cc1 | 0
N#Cc1cc(Br)c(N)c(Br)c1 | 0
Cc1cc(C#N)ncc1Br | 0
O=Cc1cc(O)cc(F)c1 | 0
O=[N+]([O-])c1ccc(C(=C(c2ccc([N+](=O)[O-])cc2)c2ccc([N+](=O)[O-])cc2)c2ccc([N+](=O)[O-])cc2)cc1 | 0
c1ccc(-c2cccc(-c3ccccc3)c2)cc1 | 0
CCOC(=O)c1nc(C(=O)OCC)nc(C(=O)OCC)n1 | 0.00108
N#Cc1ncccc1Br | 0

SMILES | photocatalytic hydrogen evolution rate [µmol/h]
N#CCC(=O)c1ccc(Br)cc1 | 0
N#CCc1ccccc1C#N | 0
S=C=Nc1cc(Br)ccc1Br | 0
N#Cc1ccc(C#N)cc1 | 0
CCCCCCCCC1(CCCCCCCC)c2cc(B3OC(C)(C)C(C)(C)O3)ccc2-c2ccc(B3OC(C)(C)C(C)(C)O3)cc21 | 0.0342
Cc1cc(C#N)cnc1Br | 0
COc1cc(Br)c(OC)cc1Br | 0
Nc1c(Br)cc2[nH]cnc2c1Br | 0
O=Cc1ccc2nccnc2c1 | 0
CCCCCCCCC1(CCCCCCCC)c2cc(Br)ccc2-c2ccc(Br)cc21 | 0
Brc1ccc(Br)c2nsnc12 | 1.29
O=Cc1ccc(-c2ccc(C=O)s2)s1 | 1.18
Nc1nc(N)nc(N)n1 | 0
O=Cc1c(O)c(C=O)c(O)c(C=O)c1O | 1.03
O=Cc1cc(C=O)cc(C=O)c1 | 0.0923
N#Cc1ccnc(C#N)c1 | 0
CC(C)(C)c1cc(C=O)cc(C(C)(C)C)c1O | 0
O=Cc1ccc(B(O)O)cc1 | 0.0401
OB(O)c1cc(Br)cc(Br)c1 | 0
O=Cc1ccnc(-c2cc(C=O)ccn2)c1 | 0
COC(=O)c1ccc2cc(C(=O)OC)ccc2c1 | 0.0623
Fc1c(F)c(Br)c2nsnc2c1Br | 2.63
NC(=O)c1ccc(B(O)O)cc1 | 0
Nc1c(F)c(F)c(-c2c(F)c(F)c(N)c(F)c2F)c(F)c1F | 0
Brc1cnc(Br)c2nsnc12 | 0
C#Cc1cc(C(=O)O)cc(C(=O)O)c1 | 0

SMILES | photocatalytic hydrogen evolution rate [µmol/h]
N#CC(C#N)=c1c(F)c(F)c(=C(C#N)C#N)c(F)c1F | 0
O=C(O)c1cc(Br)ccc1Br | 0
COC(=O)c1ccc(-c2ccc(C(=O)OC)cc2)cc1 | 0.00435
O=C1C=CC(=O)c2ccccc21 | 0
Oc1ccc(O)cc1 | 0
O=c1cccc[nH]1 | 0
N#Cc1ccccc1CBr | 0
O=S1(=O)c2ccccc2-c2ccccc21 | 0.222
CC(C)(C)c1ccnc(-c2cc(C(C)(C)C)ccn2)c1 | 0.236
Cc1ccc(N)cc1C#N | 0
Fc1c(F)c(Br)c(F)c(F)c1Br | 0
Nc1cc(C(=O)O)ccc1C(=O)O | 0.109
NNC(=O)c1cc(Br)c(O)c(Br)c1 | 0
N#Cc1cc(O)cc(C#N)c1 | 2.14
Oc1ccc(I)cc1 | 0
O=c1c(Br)c[nH]cc1Br | 0.000384
C#Cc1cnc[nH]1 | 0
O=Cc1ccc(N2CCS(=O)(=O)CC2)cc1 | 2.73
N#CCC(=O)c1ccccc1 | 0
c1cn[nH]c1 | 0
Cc1c(O)cccc1O | 0
N#Cc1cc(F)c(F)cc1F | 0.0582
Cc1[nH]c(C)c(C=O)c1C=O | 0
O=c1[nH]cc(Br)nc1Br | 0
OB(O)c1cccc(B(O)O)c1 | 0

Other lines, results leading:

photocatalytic hydrogen evolution rate [µmol/h] | SMILES
0.0122 | O=Cc1cccc(-c2c(O)ccc3ccccc23)c1
0 | c1ccc2ccccc2c1
0.00797 | Nc1ccc(S(=O)(=O)c2ccc(N)cc2)cc1
2.42 | O=Cc1ccc(Oc2ccc(C=O)cc2)cc1
0 | O=C(O)c1ccc(N=Nc2ccccc2)cc1
1.32 | C1=Cc2nc1c(-c1ccccc1)c1ccc([nH]1)c(-c1ccccc1)c1nc(c(-c3ccccc3)c3ccc([nH]3)c2-c2ccccc2)C=C1
0 | O=C1c2ccc(Br)cc2C(=O)c2ccc(Br)cc21
0.0522 | O=C(O)c1cc(C(=O)O)cc(-c2ccc(-c3cc(C(=O)O)cc(C(=O)O)c3)cc2)c1
0.0378 | COC(=O)c1cccc2cc3cccc(C(=O)OC)c3cc12
0 | c1ccc(-c2cc(-c3ccccc3)nc(-c3ccccc3)c2)cc1
0.84 | c1csc(-c2ccc(-c3cccs3)c3nsnc23)c1
0 | c1ccc(-c2ccc(-c3ccc(-c4ccc(-c5ccc(-c6ccccc6)cc5)cc4)cc3)cc2)cc1
0 | O=c1c2ccccc2c2cc3c(=O)c4ccccc4c3cc12
0 | c1ccc(-c2ccccn2)nc1
0.103 | c1ccc(-c2ccc(-c3nc(-c4ccc(-c5ccccc5)cc4)nc(-c4ccc(-c5ccccc5)cc4)n3)cc2)cc1
0 | c1ccc(C(c2ccccc2)(c2ccccc2)c2ccccc2)cc1
0.135 | CC1(C)OB(c2ccc(-n3c4ccccc4c4ccccc43)cc2)OC1(C)C
0 | N#Cc1c(O)[nH]c(=O)c(C#N)c1-c1ccccc1
0 | O=C(O)c1ccc(C#Cc2cc(C#Cc3ccc(C(=O)O)cc3)cc(C#Cc3ccc(C(=O)O)cc3)c2)cc1
0 | Oc1ccc2c(c1)Oc1cc(O)ccc1C21c2ccccc2-c2ccccc21
0.0408 | c1ccc2c(c1)C1c3ccccc3C2c2ccccc21
0 | O=C1c2cccc([N+](=O)[O-])c2C(=O)c2c1cccc2[N+](=O)[O-]
0.121 | CC(C)(C)c1cc2ccc3c(Br)cc(Br)c4ccc(c1)c2c34

photocatalytic hydrogen evolution rate [µmol/h] | SMILES
0 | Brc1ccc(-c2ccc(Br)s2)s1
0 | ClCc1c2ccccc2c(CCl)c2ccccc12
0.401 | N#Cc1cc2ccccc2cc1C#N
0.079 | O=Cc1ccccc1P(c1ccccc1)c1ccccc1
0 | O=C1C=CC(=O)c2cc3ccccc3cc21
6.86 | O=C1c2cc3ccccc3cc2C(=O)c2cc3ccccc3cc21
0.0133 | CC1(C)OB(c2ccc3c4ccc(B5OC(C)(C)C(C)(C)O5)cc4n(-c4ccccc4)c3c2)OC1(C)C
0 | c1ccc2c(c1)c1ccccc1n2-c1ccc(N(c2ccc(-n3c4ccccc4c4ccccc43)cc2)c2ccc(-n3c4ccccc4c4ccccc43)cc2)cc1
0 | O=C1c2ccccc2Cc2ccccc21
0.0425 | O=Cc1ccc(S(=O)(=O)c2ccccc2)cc1
0 | Brc1ccc2c(c1)C1(c3ccccc3-c3ccccc31)c1cc(Br)ccc1-2
0 | C=Cc1ccccc1
0 | N#Cc1ccc(CCc2ccc(C#N)cc2)cc1
2.45 | CCn1c2ccccc2c2cc(C=O)ccc21
0.369 | Brc1ccc2ccc3cccc4ccc1c2c34
0.0357 | COC(=O)c1ccc(-c2ccc(Br)cc2)cc1
0 | c1ccc(N(c2ccccc2)c2ccc(N(c3ccccc3)c3ccccc3)cc2)cc1
0 | CC1(C)OB(c2ccc3c(c2)[nH]c2ccccc23)OC1(C)C
0.214 | O=C1c2cc(Br)ccc2-c2ccc(Br)cc21
9.93 | O=Cc1ccc2ccccc2c1
3.58 | O=Cc1ccc(-c2cccnc2)cc1
0 | N#Cc1ccc(-c2ccccc2C#N)cc1
